According to patent publication US5053070A, “Pyrimidine derivatives, preparation processes thereof, herbicide containing the same, and herbicidal compositions containing the same along with other active ingredient” (Mitsui Toatsu Chemicals, Incorporated, priority 1988, dated 1991):
Values after ≈ are worked out from the molar mass of the structure shown.

Experiments:
[1] = tested on: cotton; assay: Upland foliar application test (Test 3), crop injury; format: in vivo; conditions: 30 g ai/a, foliar spray at 2-3 leaves, 30th day
Procedure: (§1) Resin-made 1/10000-are pots were filled with the soil of an upland field. Redroot pigweed, common lambsquarters, foxtail meadow, johnsongrass, barnyardgrass, green foxtail, large crabgrass, soybean, peanut and cotton were separately seeded and were allowed to germinate in a green house. When each plant grew to the stage of 2-3 leaves, an emulsion formulated from a predetermined amount of each test compound in a similar manner to the method described in Formulation Example 11 was diluted with water to a predetermined dilution rate and then sprayed at an application rate equal to 5 l per are onto the foliage of each plant by means of a pressure-operated ULV (ultra low volume) sprayer. Influence to the crops and weeds were observed on the 30th day after the spray of the herbicides. The results are shown in Table 4 in which the degree of damages of each test plant and the degree of injury to each crop are shown in a similar manner to Test 2.

[2] = tested on: soybean; assay: as above; format: in vivo; conditions: 30 g ai/a, foliar spray at 2-3 leaves, 30th day
Procedure: as §1

[3] = tested on: peanut; assay: as above; format: in vivo; conditions: 30 g ai/a, foliar spray at 2-3 leaves, 30th day
Procedure: as §1

[4] = tested on: ALS (acetolactate syntase); assay: ALS enzyme assay (Test 1); format: biochemical, barnyardgrass; conditions: 1,000 ppm (0.5 mg/0.5 ml)
Procedure: To determine the selectivity in enzyme level between crops and weeds, and ALS enzyme assay was conducted using pea as a representative of broadleaf crops and barnyardgrass as a representative of narrowleaf weeds.
After seeds of pea and barnyardgrass were allowed to germinate at 25° C. for 8-14 days in a dark place, partially-purified suspensions (Suspensions A) of acetolactate syntase were separately obtained from seedlings in accordance with the method described in the literature, Plant Physiology, 75, 827-831.
In a test tube, 0.5 mg of one of test compounds was weighed, followed by the addition of 0.15 ml of a 20 mM K2 HPO4 solution and 0.25 ml of a reaction substrate medium which consisted of 40 mM of K2 HPO4, 40 mM of sodium pyruvate, 1 mM of TPP, 1 mM of MgCl2 and 20 μM of FAD so that 0.4 ml of a reaction solution (Solution B) was prepared. Added to 0.4 ml of Solution B was 0.1 ml of suspension A. After the resultant mixture was shaken for 1 hour in a thermostat water bath controlled at 30° C., 50 μl of 6N sulfuric acid were added to terminate the reaction.
Next, the reaction-terminated liquid mixture was transferred into a thermostat water bath controlled at 60° C. and was heated for 15 minutes. Thereafter, 0.5 ml of a 0.5% creatine solution and 0.5 ml of a 5% alkaline α-naphthol solution were added, and the resultant mixture was maintained at 60° C. for 15 minutes. As a result, the test solution developed a pink-red color. After the above operation, the absorbance of the test solution at 525 nm was measured by a spectrophotometer (Absorbance 1 of Test Compound).
On the other hand, the absorbance (Absorbance 2 of Blank) of a solution obtained by subjecting a portion of Solution B, said portion being free of the test compound, to the above operation and the absorbance (Absorbance 3 of sulfuric acid terminated) of another solution obtained by subjecting another portion of Solution B, said portion containing 50 μl of 6N sulfuric acid as a test compound, were measured at the same time. Based on the values of the respective measurements, the enzyme assay at 1,000 ppm (0.5 mg/0.5 ml) of each compound was determined. [formula]

[5] = tested on: rice; assay: Treatment of soil under submerged condition, post-emergence (Test 5), injury; format: in vivo; conditions: 30 g ai/a granule, 30 days later
Procedure: (§2) 1/5000-are Wagner pots were filled with soil. Seeds or tubers of barnyardgrass, Monochoria vaginalis, bulrush, Sagittaria pygmaea, Cyperus serroylnus and Eleocharis kuroguwai were seeded or planted under submerged condition. Two pairs of rice seedlings (2-3 leaf stage), which had been reared in advance, were transplanted to each pot and were allowed to grow in a green house. Each pair consisted of two rice seedlings. When the barnyardgrass grew to two-leaf stage, each pot was treated with a granule which had been prepared by processing a predetermined amount of the test composition in accordance with a similar method to the method described in Formulation Example 9. The state of emergence of weeds and the state of injury of rice were observed 30 days later.
(§3) In the table, the degrees of damages of the test plants and the degrees of injury of the rice are shown in a similar manner to Example 2.

[6] = tested on: barnyardgrass; assay: Treatment of soil under submerged condition, post-emergence (Test 5); format: in vivo; conditions: 30 g ai/a granule, post-emergence (barnyardgrass two-leaf stage), 30 days later
Procedure: as §2, §3

[7] = tested on: Sagittaria pygmaea; assay: as above; format: in vivo; conditions: 30 g ai/a granule, 30 days later
Procedure: as §2, §3

[8] = tested on: bulrush; assay: as above; format: in vivo; conditions: 30 g ai/a granule, 30 days later
Procedure: as §2, §3

[9] = tested on: narrowleaf waterplantain; assay: Petri dish test (Test 6); format: in vivo; conditions: 336 h; seeds on filter paper, 25° C., 14 days; read-out: I80 (ppm)
Procedure: A filter paper was placed in each glass-made Petri dish having a diameter of 9 cm. A compound dissolved in acetone was added in a predetermined amount. The filter paper was then dried in air to remove acetone. Seeds of narrowleaf waterplantain were placed on the filter paper and 10 ml of water were poured into the Petri dish. The seeds were allowed to grow at 25° C. in a bright room. Fourteen days later, the state of growth of narrowleaf water-plantain was observed.
In the table, the degree of damages of the test plant was determined by comparing the state of growth of the plant with that of the plant in an untreated group and is shown in accordance with the following standard: […]

[10] = tested on: cotton; assay: Upland soil application test (Test 2), crop injury; format: in vivo; conditions: 30 g ai/a, soil spray before emergence, 30 days later
Procedure: (§4) Resin-made 1/2500-are pots were filled with the soil of an upland field. After they were fertilized, soybean, peanut and cotton were seeded and 2-3 cm soil covering was applied. Seeds of redroot pigweed, common lambsquarters, barnyardgrass, green foxtail, large crabgrass, foxtail meadow and johnsongrass had been uniformly mixed with the soil. They were allowed to germinate in a green house. One day later (before emergence of weeds), a wettable powder prepared from a predetermined amount of each test compound in a similar manner to the method described in Formulation Example 1 was diluted with water and then sprayed evenly at an application rate equal to 10 l per are onto the surface of the soil by means of a pressure-operated ULV (ultra low volume) sprayer. Influence to the crops and weeds were observed 30 days later. The results are shown in Table 3, in which the degree of damages of each test plant and the degree of injury to each crop were determined by comparing the air-dried weights of the test plant and crop with those of the corresponding plant and crop in untreated pots and are shown in accordance with the following standard: […]

[11] = tested on: soybean; assay: Upland soil application test (Test 2), crop injury; format: in vivo; conditions: 30 g ai/a, soil spray before emergence, 30 days later
Procedure: as §4

[12] = tested on: peanut; assay: Upland soil application test (Test 2), crop injury; format: in vivo; conditions: 30 g ai/a, soil spray before emergence, 30 days later
Procedure: as §4

Compound | Injury Cotton [1] | Injury Soybean [2] | Injury Peanut [3] | Inhibitory activity (%) Barnyardgrass [4] [%] | Injury Rice [5] | Herbicidal effects Barnyardgrass [6] | Herbicidal effects Sagittaria Pygmaea [7] | Herbicidal effects Bulrush [8] | IC80 [9] [µg/mL] | Injury Cotton [10] | Injury Soybean [11] | Injury Peanut [12]
CC=CCON=Cc1ccccc1Oc1nc(OC)cc(OC)n1 [compound 8] | 0 (91-100 (No damages)) | 0 (91-100 (No damages)) | 0 (91-100 (No damages)) | 41 | 1 (71-90 (Slight damages)) | 5 (0-5 (Death)) | 5 (0-5 (Death)) | 5 (0-5 (Death)) | 40 (≈ 121 µM) | 0 (91-100 (No damages)) | 0 (91-100 (No damages)) | 0 (91-100 (No damages))
CC#CCON=Cc1ccccc1Oc1nc(OC)cc(OC)n1 [compound 10] | 0 (91-100 (No damages)) | 0 (91-100 (No damages)) | 0 (91-100 (No damages)) | 55 | 1 (71-90 (Slight damages)) | 5 (0-5 (Death)) | 5 (0-5 (Death)) | 5 (0-5 (Death)) | 17 (≈ 51.9 µM) | 0 (91-100 (No damages)) | 0 (91-100 (No damages)) | 0 (91-100 (No damages))
COc1cc(OC)nc(Oc2ccccc2C=NOCC=CCl)n1 [compound 11] | 0 (91-100 (No damages)) | 0 (91-100 (No damages)) | 0 (91-100 (No damages)) | 43 | 0 (91-100 (No damages)) | 5 (0-5 (Death)) | 4 (6-10 (Severe damages)) | 4 (6-10 (Severe damages)) | 40 (≈ 114 µM) | 0 (91-100 (No damages)) | 0 (91-100 (No damages)) | 0 (91-100 (No damages))
COc1cc(OC)nc(Oc2ccccc2C=NOCC=C(C)Cl)n1 [compound 12] | 0 (91-100 (No damages)) | 0 (91-100 (No damages)) | 0 (91-100 (No damages)) | 39 | 0 (91-100 (No damages)) | 5 (0-5 (Death)) | 3 (11-40 (Medium damages)) | 5 (0-5 (Death)) | 100 (≈ 275 µM) | 0 (91-100 (No damages)) | 0 (91-100 (No damages)) | 0 (91-100 (No damages))
COc1cc(OC)nc(Oc2ccccc2C=NOCc2ccccc2Cl)n1 [compound 16] | 0 (91-100 (No damages)) | 0 (91-100 (No damages)) | 0 (91-100 (No damages)) | 15 | 0 (91-100 (No damages)) | 4 (6-10 (Severe damages)) | 3 (11-40 (Medium damages)) | 4 (6-10 (Severe damages)) | 100 (≈ 250 µM) | 0 (91-100 (No damages)) | 0 (91-100 (No damages)) | 0 (91-100 (No damages))
